Experimental data from the supplement of paper PMC11208160.

Experiment: recombinant barcode read abundance after kanamycin selection (control-corrected) (log10(CPM+1)); higher = more efficient recombination; sequences stand for … in AGTGCAGAGAAAATCGGCCAGTTTTCTCTGCCTGCAGTCCGCATGCCGT…AGATTTATGCAGCGGACTGCCTTTCTCCCAAAGTGATAAACCGGACAGTATCATGGACCGGTTTTCCCGGTAATCCGTATTTGCAAGGTTGGTTTCACT; site = the 11-nt target
Summary of the method: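 A promoter, a target, a barcode and the first 104 bridge RNA bases under J23119 made up each oligo. Oligos were Gibson-cloned into a vector bearing the other 73 bp and a T7-inducible recombinase, then co-electroporated into E. coli with a donor plasmid and plated in duplicate on chloramphenicol/ampicillin LB agar (control) or chloramphenicol/ampicillin/kanamycin with 0.1 mM IPTG. Recombination efficiency is the averaged, control-corrected counts per million of recombinant-junction barcodes. Reported values are log10(CPM+1).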
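Also: IS621 recombinase and bridge RNA in Escherichia coli cells.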

Sequence | recombinant barcode read abundance (log10)
TGAGTGGCTTGGGTTCTAACCTGTTGCCT (site TGAGAGGCTAG) | 0.129
TGAGTGGCTTGGGTTCTAACCTGTTGCCT (site TGAGCGGCTAG) | 0.108
TGAGTGGCTTGGGTTCTAACCTGTTGCCT (site TGAGGGGCTAG) | 0.00884
TGAGTGGCTTGGGTTCTAACCTGTTGCCT (site TGAGTGGCTAG) | 0.749
TGATAGCCTTGGGTTCTAACCTGTTGCCT (site AGATAGCCTAG) | 0.063
TGATAGCCTTGGGTTCTAACCTGTTGCCT (site CGATAGCCTAG) | 0.0141
TGATAGCCTTGGGTTCTAACCTGTTGCCT (site GGATAGCCTAG) | 0.159
TGATAGCCTTGGGTTCTAACCTGTTGCCT (site TGATAGCCTAG) | 0.901
TGATATTCTTGGGTTCTAACCTGTTGCCT (site ACCAGCCCTCA) | 0.448
TGATATTCTTGGGTTCTAACCTGTTGCCT (site TGATATTCTAG) | 0.245
TGATCTCCTTGGGTTCTAACCTGTTGCAT (site TGATCTCCTAA) | 0.186
TGATCTCCTTGGGTTCTAACCTGTTGCAT (site TGATCTCCTAT) | 0.28
TGATCTCCTTGGGTTCTAACCTGTTGCTT (site TGATCTCCTAA) | 0.0107
TGATCTCCTTGGGTTCTAACCTGTTGCTT (site TGATCTCCTAT) | 0.0466
TGCCAGCCTTGGGTTCTAACCTGTTGCCT (site TGCCAGACTAT) | 0.114
TGCCAGCCTTGGGTTCTAACCTGTTGCCT (site TGCCAGCCTAG) | 0.0668
TGCCTATCTTGGGTTCTAACCTGTTGCCT (site TACCTATCTAG) | 0.234
TGCCTATCTTGGGTTCTAACCTGTTGCCT (site TCCCTATCTAG) | 0.0417

Sequence | recombinant barcode read abundance (log10)
TGCCTATCTTGGGTTCTAACCTGTTGCCT (site TGCCTATCTAG) | 0.28
TGCCTATCTTGGGTTCTAACCTGTTGCCT (site TTCCTATCTAG) | 0.0491
TGCGAGTCTTGGGTTCTAACCTGTTGCGT (site TGCGAGTCTAC) | 2.87
TGCGAGTCTTGGGTTCTAACCTGTTGCGT (site TTCGAGTCTCC) | 0.0688
TGCGCAACTTGGGTTCTAACCTGTTGCCT (site TGCGCAACTAG) | 0.0344
TGCGCAACTTGGGTTCTAACCTGTTGCCT (site TGCGCCACTAG) | 0.256
TGCGCAACTTGGGTTCTAACCTGTTGCCT (site TGCGCGACTAG) | 0.0979
TGCGCAACTTGGGTTCTAACCTGTTGCCT (site TGCGCTACTAG) | 0.0921
TGCGCGACTTGGGTTCTAACCTGTTGCCT (site TGCGCAACTAG) | 0.0131
TGCGCGACTTGGGTTCTAACCTGTTGCCT (site TGCGCCACTAG) | 0.0885
TGCGCGACTTGGGTTCTAACCTGTTGCCT (site TGCGCGACTAG) | 0.032
TGCGCGACTTGGGTTCTAACCTGTTGCCT (site TGCGCTACTAG) | 0.0869
TGCGGAGCTTGGGTTCTAACCTGTTGCCT (site TGCCGACCTAG) | 0.163
TGCGGAGCTTGGGTTCTAACCTGTTGCCT (site TGCGGAGCTAG) | 0.875
TGCGGAGCTTGGGTTCTAACCTGTTGCGG (site AACGGAGCTCC) | 0.348
TGCGGAGCTTGGGTTCTAACCTGTTGCGG (site TGCGGAGCTCC) | 1.81
TGCGTGTCTTGGGTTCTAACCTGTTGCTG (site TACGTGTCTTA) | 0.0382
TGCGTGTCTTGGGTTCTAACCTGTTGCTG (site TGCGTGTCTCA) | 1.6
